Results published in patent publication US10000739B2, “Method and culture medium for improving pluripotent stem cell differentiation inducing efficiency” (NATIONAL UNIVERSITY CORPORATION KUMAMOTO UNIVERSITY, priority 2010, dated 2018).
Read-outs that look alike come from different tables or passages of the source.

Experiments:
human iPS cells [1] = assay: Addition of methionine metabolites to methionine-deprived or methyl donor-deprived culture medium, Oct3/4 and Sox17 positive cells counted; type: cell-based; conditions: for effect of reducing Oct3/4 positive cells owing to methionine deprivation: added to methionine-deprived culture medium (ΔMet) Day 8 to Day 10; for effect of reducing Oct3/4 positive cells: added to methyl donor-deprived culture medium (ΔMD) Day 8 to Day 10
Experimental: For investigating an influence of a methionine and methyl donor-deprived culture medium on differentiation into endoderm cells, a culture medium was deprived of methionine and methyl donors on Day 8 of differentiation, and cells were cultured until Day 10 and the numbers of Oct3/4 and Sox17 positive cells were evaluated by antibody staining. Specifically, mmcM15 cells were seeded as supporting cells on a gelatin-coated 96-well plate. Human iPS cells were treated with Y27632 (10 μM) from 24 hours before seeding, and peeled using 0.25% trypsin. The peeled human iPS cells were seeded on mmcM15 cells at a cell concentration of 1×10^4 cells/well. The seeded human iPS cells were cultured for 24 hours under 37° C. and 5% CO2 in ES culture medium containing Y27632 and bFGF added. After 24 hours, the culture medium was changed to an endoderm differentiation culture medium (Day 0). The endoderm differentiation culture medium was changed every other day and human iPS cells cultured under 37° C. and 5% CO2 from the day of initiation of culture (Day 0) to Day 8. On Day 8, the culture medium was changed to various culture media. One obtained by removing […]⋅folate⋅vitamin B12⋅betaine⋅choline from the culture medium was used as a methyl donor-deprived culture medium. Human iPS cells were cultured until Day 10 using various culture media, and Oct3/4 and Sox17 positive cells were counted.
It is known that methionine is metabolized to give cysteine (Cys). […] In the figure, δMD denotes a culture medium not containing methionine, folic acid, vitamin B12, betaine and choline as a methyl donor.

human iPS cells [2] = assay: Differentiation of human iPS cells into endoderm cells on mmcM15 cells, immunofluorescent staining for Sox17 and Oct3/4; type: cell-based; conditions: staining Day 10, vs control culture medium
Experimental: (§1) In performing a whole mount immunohistochemistry test, ES cells or iPS cells were placed on Nunc Theranox Colerslips 24-well type (Nunc). Cells were fixed at room temperature for 20 minutes in 4% paraformaldehyde, and washed sufficiently with 0.1% Tween-containing phosphate buffered saline (PBS-T). In PBS containing 1% TritonX-100, the cells were infiltrated at room for 10 minutes, and incubated for 1 hour in a blocking solution (×5 Blocking One, Nacalai Tesque), then, primary antibodies in the blocking solution were added to the sample, and incubated at 4° C. overnight. The sample was washed sufficiently with PBS-T, and mounted with PermaFluor Aqueous Mounting culture medium (IMMUNON). A confocal image was obtained using Leica Spectral Confocal Scanning System, TCS-SP2 (Leica).
(§2) Antibodies used for detection are as described below. Rabbitanti-α-fetoprotein (AFP, Dako), goat anti-albumin (Sigma), rabbit anti-Pdx1 (Chemicon), mouse anti-Oct3/4 (Santa Cruz), goat anti-Sox17 (R&D). As secondary antibodies, Alexa568-labeled goat anti-rabbit antibody and donkey anti-goat antibody, and Alexa488-labeled goat anti-mouse antibody and goat anti-rabbit antibody, donkey anti-goat antibody (Molecular Probes) were used. Cells were counter-stained with DAPI (Roche). The numbers of Sox17 and Oct3/4 positive cells were quantified using ImageXpress (Molecular Devices Corporation).
Differentiation of human iPS cells into endoderm cells was induced using endoderm differentiation culture media deprived of one amino acid for each culture medium. For induction of differentiation into endoderm cells, an endoderm differentiation inducing method using mmcM15 cells was used (see, non-patent document 6).
As the culture medium, the following media were used depending on the culturing period. From initiation of culturing (Day 0) until Day 6 or Day 8 of culturing, PRMI 1640 culture medium (Invitrogen) containing 50 units/ml penicillin and 50 μg/ml streptomycin (GIBCO), 2 mM L-glutamine (GIBCO), 100 μM β-mercaptoethanol (Sigma), non-essential amino acid (GIBCO), 100 ng/ml activin (R&D Systems) and B27 culture medium additive (Invitrogen) added was used as an endoderm differentiation culture medium.
From Day 6 or Day 8 until Day 10, amino acid-deprived culture media obtained by removing one amino acid from PRMI 1640 culture medium containing 50 units/ml penicillin and 50 μg/ml streptomycin, 2 mM L-glutamine, 100 μM β-mercaptoethanol, 100 ng/ml activin and B27 culture medium additive added, or a culture medium not deprived of an amino acid (control culture medium) was used as an endoderm differentiation culture medium.
Specifically, mmcM15 cells were seeded as supporting cells on a gelatin-coated 96-well plate. Human iPS cells were treated with Y27632 (10 μM) from 24 hours before seeding, and peeled using 0.25% trypsin. The peeled human iPS cells were seeded on mmcM15 cells at a cell concentration of 1×10^4 cells/well. The seeded human iPS cells were cultured for 24 hours under 37° C. and 5% CO2 in ES culture medium (ReproStem, ReproCell) containing 10 μM Y27632 and 5 ng/ml bFGF added. After 24 hours, cells were washed once with PBS, then, the culture medium was changed to an endoderm differentiation culture medium (Day 0). Until Day 6 or Day 8 of culturing, the endoderm differentiation culture medium was changed every other day, and human iPS cells were cultured under 37° C. and 5% CO2. On Day 6 or Day 8, the culture medium was changed to an amino acid-deprived culture medium or a control culture medium. Human iPS cells were cultured until Day 10 of culturing using an amino acid-deprived culture medium or a control culture medium. On Day 10, human iPS cells were subjected to immunofluorescent staining, and the proportions of positive cells for an endoderm differentiation marker (Sox17) and an undifferentiation marker (Oct3/4) were quantitatively analyzed. The proportion of the positive cells based on those stained with DAPI was calculated.

human iPS cells [3] = system: human iPS cells
Experimental: as §1, §2
The methionine addition concentration between Day 8 and Day 10 was […], 0.1, 1.0, 5.0, 10.0, 20.0, 50.0, 100, 200 and 500 μM.
On Day 10, the culture medium was changed to a liver differentiation culture medium ([…] containing 10% KSR, 2000 mg/l D-glucose, 50 units/ml penicillin and 50 μg/ml streptomycin, 2 mM L-glutamine, 100 μM β-mercaptoethanol, […] human recombinant HGF and 1 μM dexamethasone (hereinafter, referred to as “2000KSR-DMEM culture medium”)), and cultured under 37° C. and 5% CO2 until Day 20. During Day 10 to Day 20, the culture medium was changed every other day. On Day 20, human iPs cells were subjected to immunofluorescent staining, and the proportions of Oct3/4 positive cells and AFP positive cells were compared for every methionine concentration.
On Day 10, the culture medium was changed to a liver differentiation culture medium (2000KSR-DMEM culture medium), and human iPS cells were cultured under 37° C. and 5% CO2 until Day 30. During Day 10 to Day 30, the culture medium was changed every other day.

human iPS cells [4] = system: human iPS cells; remark: listed apart in the source
Experimental: For investigating an influence of a proline-added differentiation culture medium on differentiation into hepatocytes, differentiation of human iPS cells into liver precursor cells was induced using a liver differentiation culture medium containing proline added at a concentration of 1 mM.
On a gelatin-coated 96-well plate, mmcM15 cells were seeded as supporting cells. Human iPS cells were treated with Y27632 (10 μM) from 24 hours before seeding, and peeled using 0.25% trypsin. The peeled human iPS cells were seeded on mmcM15 cells at a cell concentration of 1×10^4 cells/well. The seeded human iPS cells were cultured for 24 hours under 37° C. and 5% CO2 in ES culture medium containing Y27632 and bFGF added. After 24 hours, the culture medium was changed to an endoderm differentiation culture medium (Day 0).
In the same manner as in Example 3, the endoderm differentiation culture medium was changed every other day and human iPS cells were cultured under 37° C. and 5% CO2, from the day of initiation of culturing (Day 0) to Day 8.
On Day 10, the culture medium was changed to a liver differentiation culture medium (2000KSR-DMEM culture medium, control culture medium) or Pro-containing 2000KSR-DMEM culture medium obtained by further adding 1 mM proline to a control culture medium, and human iPS cells were cultured until Day 19 under 37° C. and 5% CO2. During Day 10 to Day 19, the culture medium was changed every other day. On Day 19, human iPS cells were subjected to immunofluorescent staining with an anti-Oct3/4 antibody and an anti-AFP antibody.

[5] = amino acid-deprived endoderm differentiation culture medium Day 6 to Day 10
[6] = amino acid-deprived endoderm differentiation culture medium Day 8 to Day 10
[7] = methionine 0 μM to 0.1 μM Day 8 to Day 10, Day 20, FIG. 7C
[8] = methionine 1 μM to 20 μM Day 8 to Day 10, Day 20, FIG. 7C
[9] = methionine 50 μM or more Day 8 to Day 10, Day 20, FIG. 7C
[10] = Day 19, methionine deprivation Day 8 to Day 10 and/or 1 mM proline Day 10 to Day 19, vs control group

Row | SMILES | Oct3/4 positive cell ratio (human iPS cells [2]; [5]) | Oct3/4 positive cell ratio (human iPS cells [2]; [6]) | Sox17 positive cell ratio (human iPS cells [2]; [6]) | further results
1 | N[C@@H](CCS)C(=O)O [Hcy, homocysteine] |  |  |  | effect of reducing Oct3/4 positive cells owing to methionine deprivation (human iPS cells [1]): the effect of reducing Oct3/4 positive cells is inhibited; effect of reducing Oct3/4 positive cells (human iPS cells [1]): had not influence
2 | CC[C@H](C)[C@H](N)C(=O)O [Ile, isoleucine] | decreased | remarkably decreased |  | 
3 | N[C@@H](Cc1c[nH]cn1)C(=O)O [His, histidine] | decreased | remarkably decreased |  | 
4 | N[C@@H](Cc1ccc(O)cc1)C(=O)O [Tyr, tyrosine] | decreased | remarkably decreased | without change | 
5 | N[C@@H](Cc1c[nH]c2ccccc12)C(=O)O [Trp, tryptophan] | decreased | remarkably decreased |  | 
6 | N=C(N)NCCC[C@H](N)C(=O)O [Arg, arginine] | decreased | remarkably decreased | increased | 
7 | N[C@@H](CS)C(=O)O [Cys, cysteine] | decreased | remarkably decreased | increased | effect of reducing Oct3/4 positive cells owing to methionine deprivation (human iPS cells [1]): has no influence
8 | N[C@@H](Cc1ccccc1)C(=O)O [Phe, phenylalanine] | decreased | remarkably decreased |  | 
9 | C[S+](CC[C@H](N)C(=O)O)C[C@H]1O[C@@H](n2cnc3c(N)ncnc32)[C@H](O)[C@@H]1O (stereo partly shown) [SAM, S-adenosylmethionine] |  |  |  | effect of reducing Oct3/4 positive cells owing to methionine deprivation (human iPS cells [1]): the effect of reducing Oct3/4 positive cells is inhibited; effect of reducing Oct3/4 positive cells (human iPS cells [1]): inhibited the effect of reducing Oct3/4 positive cells
10 | CSCC[C@H](N)C(=O)O [Met, methionine] | decreased | remarkably decreased | increased | AFP positive cells (human iPS cells [3]; [7]): present uniformly; amount of remaining Oct3/4 positive cells (human iPS cells [3]; [7]): small; number of AFP positive cells (human iPS cells [3]; [8]): decrease in the number of AFP positive cells is not recognized; number of Oct3/4 positive cells (human iPS cells [3]; [8]): increases slightly; number of Oct3/4 positive cells (human iPS cells [3]; [9]): remarkable increase; number of Sox17 positive cells (human iPS cells [3]; [9]): remarkable decrease; proportion of Oct3/4 positive cells on Day 20 (human iPS cells [3]; methionine added Day 8 to Day 10 at various concentrations up to 500 μM, then liver differentiation culture medium): increased depending on the methionine concentration; proportion of AFP positive cells (human iPS cells [3]; methionine concentrations of 50 μM or more Day 8 to Day 10, Day 20, FIG. 7B): decreased; effect of reducing Oct3/4 positive cells owing to methionine deprivation (human iPS cells [1]): the effect of reducing Oct3/4 positive cells is inhibited; effect of reducing Oct3/4 positive cells (human iPS cells [1]): inhibited the effect of reducing Oct3/4 positive cells
11 | C[C@@H](O)[C@H](N)C(=O)O [Thr, threonine] | decreased | remarkably decreased |  | 
12 | NCC(=O)O [Gly] |  |  | increased | 
13 | CC(C)[C@H](N)C(=O)O [Val, valine] | decreased | remarkably decreased |  | 
14 | NCCCC[C@H](N)C(=O)O [Lys, lysine] | decreased | remarkably decreased |  | 
15 | NC(=O)CC[C@H](N)C(=O)O [Gln] |  |  | increased | 
16 | N[C@@H](CO)C(=O)O [Ser] |  |  | increased | 
17 | CC(C)C[C@H](N)C(=O)O [Leu, leucine] | decreased | remarkably decreased | increased | 
18 | O=C(O)[C@@H]1CCCN1 [proline] |  |  |  | AFP positive cells (human iPS cells [4]; [10]): larger; Oct3/4 positive cells (human iPS cells [4]; [10]): decreased; AFP and Oct3/4 positive cells (human iPS cells [4]; proline 10 mM): the same result as in the case of 1 mM addition
19 | Nc1ncnc2c1ncn2[C@@H]1O[C@H](CSCC[C@H](N)C(=O)O)[C@@H](O)[C@H]1O [SAH, S-adenosylhomocystein] |  |  |  | effect of reducing Oct3/4 positive cells owing to methionine deprivation (human iPS cells [1]): the effect of reducing Oct3/4 positive cells is inhibited; effect of reducing Oct3/4 positive cells (human iPS cells [1]): had not influence
